What was measured:
E. coli β-galactosidase = E. coli β-galactosidase (Escherichia coli, UniProt P00722); details: psi 2 BAGα cells constitutively expressing β-galactosidase; 3 hr at 37° C.; excitation 633 nm; emission 685-710 nm (panel B)
Experimental: Psi 2 BAGα cells (ATCC, catalog no. CRL-9560) in Dulbecco's modified Eagle's medium (ATCC, catalog no. 30-2002) containing 5% Fetal Bovine Serum (FBS, HyClone, catalog no. SH30071.03) and 1% penicillin-streptomycin solution (pen/strep, ATCC, catalog no. 30-2300) were seeded (200 μl/well, 10,000 cell/well) in black 96 well microtiter plates (ABI, catalog no. 4308776). […] After overnight incubation at 37° C. under 5% CO2 the supernatants were removed carefully so as not to detach the adherent cells from the wells. Solutions of liposome encapsulated DDAO-gal, liposome encapsulated DDAO and nonencapsulated DDAO-gal were prepared in the appropriate cell medium and then added to the cells (200 μl/well). The nonencapsulated DDAO-gal solution was used as a negative control (no liposome, passive uptake) and the liposome encapsulated DDAO solution was used as a positive control (DDAO is the product of DDAO-gal hydrolysis). After incubation for 3 hr at 37° C. under 5% CO2 the staining solutions were removed carefully and the cells were washed twice with Dulbecco's PBS (200 μl, ATCC, catalog no. 30-2200). PBS (200 μl) was added to the wells and the plate was read using an 8100 FMAT instrument (Applied Biosystems, an Applera Corporation business).
DDAO-gal without liposomes were used as a negative control (passive load) and liposomes containing DDAO were used as a positive control. […]

CHO cells = assay: Cell staining with liposomes containing DDAO-gal, CHO cells (FMAT fluorescence); type: cell-based, Chinese Hamster; details: no endogenous β-galactosidase, 3 hr at 37° C., excitation 633 nm
Experimental: The experiments shown in FIGS. 7-9, were conducted under similar conditions to those of FIGS. 1-3, respectively, with the exception that Chinese Hamster Ovary (CHO) cells were used.

E. coli β-galactosidase, sequence (P00722 whole entry): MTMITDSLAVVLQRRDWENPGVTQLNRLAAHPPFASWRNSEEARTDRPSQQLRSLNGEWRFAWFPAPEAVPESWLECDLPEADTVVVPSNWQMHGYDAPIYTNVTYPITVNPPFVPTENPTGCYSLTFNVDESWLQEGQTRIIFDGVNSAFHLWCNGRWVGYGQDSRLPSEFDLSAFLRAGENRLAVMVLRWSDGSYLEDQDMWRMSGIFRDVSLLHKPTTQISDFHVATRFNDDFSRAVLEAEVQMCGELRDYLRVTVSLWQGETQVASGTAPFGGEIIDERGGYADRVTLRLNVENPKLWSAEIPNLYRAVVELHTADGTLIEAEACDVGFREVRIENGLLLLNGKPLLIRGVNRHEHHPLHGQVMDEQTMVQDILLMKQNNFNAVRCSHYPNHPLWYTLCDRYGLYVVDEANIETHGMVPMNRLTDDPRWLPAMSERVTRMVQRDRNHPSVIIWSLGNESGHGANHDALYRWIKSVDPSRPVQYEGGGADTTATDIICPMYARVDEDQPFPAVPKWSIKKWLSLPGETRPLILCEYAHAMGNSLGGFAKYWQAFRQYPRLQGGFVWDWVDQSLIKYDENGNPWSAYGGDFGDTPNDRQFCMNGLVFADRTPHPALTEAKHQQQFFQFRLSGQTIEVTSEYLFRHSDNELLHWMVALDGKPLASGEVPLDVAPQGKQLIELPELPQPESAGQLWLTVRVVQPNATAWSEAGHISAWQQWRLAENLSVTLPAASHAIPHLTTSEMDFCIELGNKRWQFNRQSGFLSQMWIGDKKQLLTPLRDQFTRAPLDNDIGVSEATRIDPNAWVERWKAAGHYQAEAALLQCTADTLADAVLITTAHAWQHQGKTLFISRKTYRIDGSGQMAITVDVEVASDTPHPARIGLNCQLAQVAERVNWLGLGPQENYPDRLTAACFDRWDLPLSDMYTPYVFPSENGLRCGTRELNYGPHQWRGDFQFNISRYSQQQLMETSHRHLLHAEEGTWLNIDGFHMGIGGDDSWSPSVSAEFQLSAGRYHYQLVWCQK

## CC1(C)C2=C(Cl)C(=O)C(Cl)=CC2=Nc2ccc(O[C@@H]3O[C@H](CO)[C@H](O)[C@H](O)[C@H]3O)cc21 [DDAO-gal, 9H-(1,3-dichloro-9,9-dimethylacridin-2-one-7-yl) β-D-galactopyranoside]
E. coli β-galactosidase
  fluorescent signal: much lower signal
CHO cells
  fluorescent signal: signal observed
